In patent publication US20240131007A1, “METHODS AND COMPOSITIONS FOR PICORNAVIRUS ANTI-VIRAL AGENTS” (University of Connecticut, priority 2022, published 2024):
Entries after “also recorded” stand apart in the source; their conditions may differ. Read-outs that look alike come from different tables or passages of the source.

Assays:
EV-A71 Δ2C^116-329 = target: T1, EV-A71 Δ2C^116-329 (Human enterovirus 71, UniProt Q66478); test: biochemical; type: biochemical; settings: single concentration 50 μM
T1 construct: EV-A71 Δ2C (amino acids 116-329) was designed with; made in house; host or cells: E. coli Rosetta 2(DE3) pLysS, pMALc5x vector

[1] = target: T2, EV-A71 Δ2C^116-329 (2C ATPase) (Enterovirus A71, UniProt B9VUU3); test: 2C ATPase inhibition assay (colorimetric malachite green, dose response); type: biochemical
T2 construct: Ni-NTA and SEC purified

in vitro = settings: African green monkey
[2] = test system: EV-A71-TN (VP1-T237N mutant); type: cell-based, Enterovirus A71; settings: 500 μM compound; Vero cells
wild type EV-A71 (WT) = type: cell-based; settings: 500 μM compound; Vero cells
EV-A71 = test: CPE inhibition assay (Cell Titer Glo) against EV-A71 in Vero cells; type: cell-based, Enterovirus A71; settings: for IC50: Enterovirus A, EVA71

T1 sequence (Q66478 1227-1440, stated change not applied): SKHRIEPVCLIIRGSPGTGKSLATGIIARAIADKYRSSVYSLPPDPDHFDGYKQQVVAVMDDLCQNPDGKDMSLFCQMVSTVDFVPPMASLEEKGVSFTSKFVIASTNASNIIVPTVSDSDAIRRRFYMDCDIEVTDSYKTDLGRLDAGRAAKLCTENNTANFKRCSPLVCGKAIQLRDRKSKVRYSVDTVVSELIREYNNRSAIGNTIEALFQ
T2 sequence (B9VUU3 1227-1440, stated change not applied): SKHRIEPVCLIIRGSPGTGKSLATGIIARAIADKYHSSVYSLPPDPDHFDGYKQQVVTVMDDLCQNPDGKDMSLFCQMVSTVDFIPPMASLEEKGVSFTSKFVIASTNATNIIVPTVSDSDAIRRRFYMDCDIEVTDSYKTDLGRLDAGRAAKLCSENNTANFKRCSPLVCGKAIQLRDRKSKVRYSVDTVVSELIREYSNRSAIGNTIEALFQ

O=C(Cn1nc2c(Oc3cccc(F)c3)nccn2c1=O)Nc1cccc(Cl)c1 [Compound 167, N-(3-chlorophenyl)-2-[8-(3-fluorophenoxy)-3-oxo-2H,3H-[1,2,4]triazolo[4,3-a]pyrazin-2-yl]acetamide]
inhibition of the ATPase function of Δ2C^116-329 (absorbance below 3SD cutoff) (EV-A71 Δ2C^116-329): inhibited 2C ATPase; also recorded: inhibited the ATPase function | IC50 [1]: 61.2 µM | CC50 at 3 days (in vitro; CC50): > 400 µM | CC50 at 3 days (in vitro; CC50 (μM)): > 1000 µM | decrease in viral titer vs DMSO [2]: ~5 fold | decrease in viral titer vs DMSO (wild type EV-A71 (WT)): ~100 fold | IC50 (EV-A71; EV-A71, Vero cells, read-out: IC50 for inhibition of virus-induced CPE): 59.4 µM | IC50 (EV-A71; Table 7, EV-A71, Vero cells, read-out: IC50): 59.4 µM | Selectivity Index (EV-A71; Table 7, CC50/IC50): >16.8 | selectivity index (EV-A71; from IC50 and CC50): > 16.8 | anti-viral activity (luminescence above 3SD cutoff) (EV-A71; single concentration 50 μM, EV-A71, Vero cells): inhibited EV-A71
